This note sets out measurements from ChEMBL document CHEMBL1146287, “New carbon-linked azole oxazolidinones with improved potency and pharmacokinetics” (Bioorg Med Chem Lett, 2007).

The structures appear in SMILES notation. ≈ marks a conversion by molar mass, not a printed value. A value given as a limit tells only on which side of the number the result lay.

Series [1] can be described thus: Volume of distribution in rat. The format is ADME, organism-based. To be noted: in vivo, read-out: Vss.
Series [2] is described as follows: Oral bioavailability in rat at 40 mg/kg. In kind it is ADME, organism-based. To be noted: in vivo.
A further series deals with Haemophilus influenzae. Nature of the series: Antimicrobial activity against Haemophilus influenzae by broth dilution method. In kind it is functional. (Dilution methods test growth across graded concentrations, often in twofold steps.)
A further series relates to Staphylococcus aureus. Nature of the series: Antimicrobial activity against staphylococcus aureus by broth dilution method. In kind it is functional.
The nature of series [3]: Half life in rat. As to conditions: in vivo. In kind it is ADME, organism-based.
Series [4] can be described thus: Plasma clearance in rat. In kind it is ADME, organism-based.
In series [5] the target is T1, Amine oxidase [flavin-containing] A (Homo sapiens, UniProt P21397).
T1 sequence (P21397 whole entry): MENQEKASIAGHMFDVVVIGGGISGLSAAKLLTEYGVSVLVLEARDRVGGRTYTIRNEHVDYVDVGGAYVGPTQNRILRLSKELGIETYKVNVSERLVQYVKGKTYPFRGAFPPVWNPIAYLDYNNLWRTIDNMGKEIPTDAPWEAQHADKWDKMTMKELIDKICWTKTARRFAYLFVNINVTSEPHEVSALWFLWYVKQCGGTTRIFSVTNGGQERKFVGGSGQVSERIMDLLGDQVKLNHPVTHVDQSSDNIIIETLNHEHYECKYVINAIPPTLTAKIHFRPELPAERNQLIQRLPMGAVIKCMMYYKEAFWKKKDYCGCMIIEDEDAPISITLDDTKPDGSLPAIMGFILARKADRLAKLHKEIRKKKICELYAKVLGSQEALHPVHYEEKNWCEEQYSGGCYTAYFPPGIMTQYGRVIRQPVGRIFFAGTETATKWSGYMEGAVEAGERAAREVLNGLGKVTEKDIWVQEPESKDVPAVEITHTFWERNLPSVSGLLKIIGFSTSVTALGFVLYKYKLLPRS
Briefly: Inhibition human liver MAOA activity.

The subject of a further series is Streptococcus pneumoniae. Nature of the series: Antimicrobial activity against streptococcus pneumoniae by broth dilution method. The format is functional.
In the next series the test system is Mus musculus. Briefly: Antibacterial activity against Streptococcus pneumoniae ARC548 infected C57BL/6 mouse lung at 25 mg/kg, po after 2 days relative to Linezolid. In kind it is functional.

For orientation: bioavailability means dose-corrected exposure relative to a reference, in per cent. Higher therefore signals good availability. The half-life is the time in which the quantity being followed falls by half. A low value points to fast loss. The clearance is a measure of how efficiently the substance is removed, as volume per time. Regarding `Cc1cn(C[C@H]2CN(c3ccc(-c4cc(C)no4)c(F)c3)C(=O)O2)nn1`, the Vd in series [1] turned out to be 0.5 L/kg. In series [2], this compound returned a bioavailability of 87%. Besides, the values for the MIC against Haemophilus influenzae, against Staphylococcus aureus and in the series with Streptococcus pneumoniae were 4 µg/mL (≈ 11.2 µM), 0.5 µg/mL (≈ 1.4 µM) and 0.25 µg/mL (≈ 0.7 µM), respectively. Besides, in [3], the half-life was 1.2 h. This compound yielded a clearance in series [4] of 5 mL/min/kg. In series [5], this compound had a Ki of 22.6 µmol.
For `Cc1cc(-c2ccc(N3C[C@H](Cn4ccnn4)OC3=O)cc2F)on1`, the Vd in series [1] stood at 0.6 L/kg. The bioavailability in series [2] amounted to 82%. In the series with Mus musculus, the “Lung antibacterial activity relative to linezolid” value is on record as 92%. The MIC in the series on Haemophilus influenzae stood at 8 µg/mL (≈ 23.3 µM); in the series on Staphylococcus aureus it was 0.5 µg/mL (≈ 1.46 µM); in the series on Streptococcus pneumoniae it was 0.25 µg/mL (≈ 0.728 µM). The half-life in series [3] was 1.7 h. Further, the clearance in [4] worked out at 5 mL/min/kg. Besides, the Ki in series [5] was found to be 2.9 µmol.
For `N#CCn1cc(-c2ccc(N3C[C@H](Cn4ccnn4)OC3=O)cc2F)nn1`, the figures for the MIC against Haemophilus influenzae, with Staphylococcus aureus and in the series with Streptococcus pneumoniae were 32 µg/mL (≈ 86.9 µM), 4 µg/mL (≈ 10.9 µM) and 2 µg/mL (≈ 5.43 µM), respectively.
The corresponding values for `O=C1O[C@@H](CNc2ccon2)CN1c1ccc(-c2c[nH]nn2)c(F)c1` are 16 µg/mL (≈ 46.5 µM), 8 µg/mL (≈ 23.2 µM) and 16 µg/mL (≈ 46.5 µM).
With `CC(=O)NC[C@H]1CN(c2ccc(-c3cc(C)no3)c(F)c2)C(=O)O1`, in the series on Mus musculus, the “Lung antibacterial activity relative to linezolid” value is listed as 22%. The results for the MIC against Haemophilus influenzae, in the series on Staphylococcus aureus and in the series with Streptococcus pneumoniae were 4 µg/mL (≈ 12 µM), 0.5 µg/mL (≈ 1.5 µM) and 0.25 µg/mL (≈ 0.75 µM), respectively. Moreover, the Ki in [5] worked out at 0.95 µmol.
As for `Cn1cc(-c2ccc(N3C[C@H](Cn4ccnn4)OC3=O)cc2F)nn1`, the figures for the MIC against Haemophilus influenzae, in the series on Staphylococcus aureus and against Streptococcus pneumoniae were above 64 µg/mL, 32 µg/mL (≈ 93.2 µM) and 16 µg/mL (≈ 46.6 µM), respectively.
The corresponding values for `CC(=O)NC[C@H]1CN(c2ccc(-c3c[nH]nn3)c(F)c2)C(=O)O1` are 8 µg/mL (≈ 25.1 µM), 4 µg/mL (≈ 12.5 µM) and 2 µg/mL (≈ 6.26 µM).
Taken in the same sequence, the figures for `O=C1O[C@@H](Cn2ccnn2)CN1c1ccc(-c2c[nH]nn2)c(F)c1` were above 64 µg/mL, 64 µg/mL (≈ 194 µM) and 32 µg/mL (≈ 97.2 µM).
On to `Cc1cc(-c2ccc(N3C[C@H](CNc4ccon4)OC3=O)cc2F)on1`, for which the “Lung antibacterial activity relative to linezolid” value in the series with Mus musculus came out at 33%. In addition, the MIC was found to be 16 µg/mL (≈ 44.7 µM) against Haemophilus influenzae, 0.5 µg/mL (≈ 1.4 µM) in the series with Staphylococcus aureus and 0.25 µg/mL (≈ 0.698 µM) against Streptococcus pneumoniae. In addition, in series [5], the Ki is 0.42 µmol.
As for `CC(=O)NC[C@H]1CN(c2ccc(N3CCOCC3)c(F)c2)C(=O)O1` [LINEZOLID], the “Lung antibacterial activity relative to linezolid” value with Mus musculus is 75%. Besides, the MIC in the series on Haemophilus influenzae was determined as 8 µg/mL (≈ 23.7 µM). The Ki in series [5] is 20 µmol.
